In PMC3038857, “Using Nuclear Receptor Activity to Stratify Hepatocarcinogens” (PLoS ONE, 2011):
Like-named read-outs stand apart in the source and are kept apart here.

Columns and labels:
CAR (NR1I3) = biological target: T1, CAR (NR1I3) (Homo sapiens, UniProt Q14994); test: ATG_PBREM_CIS: Factorial reporter gene assay (HepG2); assay type: cell-based; parameters: endogenous in cells; host or cells: HepG2; scale not given here
T1 sequence (Q14994 1-352): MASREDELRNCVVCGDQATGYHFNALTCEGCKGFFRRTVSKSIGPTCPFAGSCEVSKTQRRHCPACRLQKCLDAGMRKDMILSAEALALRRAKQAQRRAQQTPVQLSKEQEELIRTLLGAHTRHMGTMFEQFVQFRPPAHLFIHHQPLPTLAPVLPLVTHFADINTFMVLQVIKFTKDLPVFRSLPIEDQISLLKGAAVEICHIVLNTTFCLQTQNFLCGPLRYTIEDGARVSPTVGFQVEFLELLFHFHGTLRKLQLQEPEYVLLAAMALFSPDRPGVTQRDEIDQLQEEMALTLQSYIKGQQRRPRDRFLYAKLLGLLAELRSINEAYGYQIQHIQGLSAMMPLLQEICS
Summary of the method: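 Seven concentrations per chemical, three-fold dilutions down from the MTC, were tested in HepG2 hepatoma cells. Those cells carried a multiple reporter transcription unit library, read either as cis transcription-factor-site reporters or as a trans mammalian one-hybrid panel for nuclear receptors.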

CYP3A4 = test: CLZD_CYP3A4: Change in expression of CYP3A4 (primary human hepatocytes); assay type: cell-based; conditions: 24 hr
Summary of the method: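 Cultured primary human hepatocytes treated with chemicals for 6, 24 or 48 hr across five concentrations spanning 0.004-40 µM, then transcript level measured by quantitative nuclease protection in a multiplexed format.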

AR (androgen receptor) = test: NVS_NR_hAR: Human AR 3H-Methyltrienolone (cell-free HTS); assay type: binding
Description: (§1) These are a collection of biochemical assays measuring binding constants and enzyme inhibition values. Chemicals were initially screened at a single concentration in duplicate wells at a concentration of 10 [drawing 63] M for cytochrome P-450 assays and 25 [drawing 64] M for all others. […] These assays were run by Caliper Life Sciences (Hanover, MD) under contract to EPA. Short assay descriptions are available at: http://www.caliperls.com/products/contract-research/in-vitro/.
(§2) Cell-free HTS Assays: A collection of biochemical assays measuring binding constants and enzyme inhibition values. […] These assays were run by Caliper Life Sciences (Hanover, MD) under contract to EPA. Short assay descriptions are available at http://www.caliperls.com/products/contract-research/in-vitro/. Values for all endpoints were imported into GeneData Screener (Basel, Switzerland) and normalised to solvent controls from the same plate as the tested compounds and expressed as percent of neutral control. Concentration-response curves were fit in GeneData Screener (Basel, Switzerland) Condeseo module using the Hill equation and AC50 values were determined. […] Detailed description of the methods, data and analysis methods for this dataset are described in a separate publication.

HMGCS2 = test: CLZD_HMGCS2: Change in expression of HMGCS2 (primary human hepatocytes); assay type: cell-based; conditions: 24 hr, scale not given, looks like -log10 of molar active concentration, 0 = no activity
Experimental: This is a collection of multiplexed gene expression assays focused on Phase I and II xenobiotic metabolizing enzymes and transporters. Human primary cell cultures were treated with chemicals at 5 concentrations (0.004-40 [drawing 42] M) for 6, 24 and 48 hr. Concentration- and time-response profiles of chemicals were measured by the expression of key nuclear receptor target genes, activities of CYP1A enzymes (EROD), and cell morphology. Fourteen gene targets were monitored by quantitative nuclease protection assay including: six representative cytochrome P-450 genes, four hepatic transporters, three Phase II conjugating enzymes, and one endogenous metabolism gene involved in cholesterol synthesis. The target genes associated with nuclear receptor pathways are as follows: [drawing 43] and [drawing 44] with [drawing 45]; [drawing 46] , [drawing 47] , [drawing 48] , [drawing 49] , [drawing 50] and [drawing 51] with [drawing 52]; [drawing 53] , [drawing 54] , [drawing 55] and [drawing 56] with [drawing 57]; [drawing 58] with [drawing 59]; and [drawing 60] with [drawing 61] . Assays were run in primary human hepatocyte cultures by CellzDirect Invitrogen Inc. (Durham, NC), in collaboration with EPA.
Multiplexed Gene Expression in Human Primary Hepatocytes: This is a collection of multiplexed gene expression assays focused on Phase I and II metabolic enzymes and transporters. […] Fourteen gene targets were monitored by quantitative nuclease protection assay: six representative cytochrome P450 genes, four hepatic transporters, three Phase II conjugating enzymes, and one endogenous metabolism gene involved in cholesterol synthesis. Cells were exposed at 5 concentrations (0.004-40 µM) for 6, 24 or 48 hr. Gene targets are sentinels for five nuclear receptor signaling pathways: AhR, CAR, PXR, FXR, and PPARα. All gene are associated with nuclear receptor pathways: CYP1A1 and CYP1A2 with AHR; ABCB1, ABCG2, CYP2B6, CYP2C9, CYP2C19 and UGT1A1 with CAR; CYP3A4, GSTA2, SLCO1B1 and SULT2A1 with PXR; HMGCS2 with PPARA; and ABCB11 with FXR. […] Detailed description of the methods, data and analysis methods for this dataset will be presented in a separate publication.

PPARg (PPARG) = biological target: T2, PPARg (PPARG) (Homo sapiens, UniProt P37231); test: NVS_NR_hPPARg: Human PPARg Fluorescent Ligand (cell-free HTS); assay type: binding
T2 sequence (P37231 1-505): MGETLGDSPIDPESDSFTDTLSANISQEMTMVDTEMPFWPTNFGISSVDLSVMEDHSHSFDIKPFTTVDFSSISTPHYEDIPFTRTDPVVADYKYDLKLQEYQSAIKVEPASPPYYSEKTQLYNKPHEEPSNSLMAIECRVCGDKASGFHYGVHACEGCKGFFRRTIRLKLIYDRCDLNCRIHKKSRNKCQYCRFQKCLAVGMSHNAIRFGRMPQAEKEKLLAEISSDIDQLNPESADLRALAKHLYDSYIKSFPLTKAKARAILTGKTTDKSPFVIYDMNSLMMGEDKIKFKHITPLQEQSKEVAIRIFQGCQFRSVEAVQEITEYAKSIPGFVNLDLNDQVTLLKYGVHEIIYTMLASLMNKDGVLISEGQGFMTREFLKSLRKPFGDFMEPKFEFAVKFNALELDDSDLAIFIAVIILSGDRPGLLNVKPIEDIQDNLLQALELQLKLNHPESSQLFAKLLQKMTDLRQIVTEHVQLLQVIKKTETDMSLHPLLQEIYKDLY
Description: as §1, §2

[1] = HepG2, scale not given, looks like -log10 of molar active concentration, 0 = no activity
[2] = scale not given, looks like -log10 of molar active concentration, 0 = no activity

Structure (SMILES)	ATG_PBREM_CIS (CAR (NR1I3); [1])	CLZD_CYP3A4_24 (CYP3A4; [2])	NVS_NR_hAR (AR (androgen receptor); [2])	CLZD_HMGCS2_24 (HMGCS2)	NVS_NR_hPPARg (PPARg (PPARG); [2])	CLZD_CYP3A4_24 (CYP3A4)	also measured
COC(=O)c1ccccc1CS(=O)(=O)NC(=O)Nc1nc(OC)cc(OC)n1 [r33]	0	0	0	0	0	–	–
CC(C)N1C(=O)c2ccccc2NS1(=O)=O [r37]	–	0	0	0	0	–	–
COc1ccc(-c2ccccc2)cc1NNC(=O)OC(C)C [r38]	0	0	0	0	0	–	–
Cc1c(COC(=O)C2C(/C=C(\Cl)C(F)(F)F)C2(C)C)cccc1-c1ccccc1 (stereo not drawn) [r39]	0	4.923	0	0	0	–	–
CC(C)(c1ccc(O)cc1)c1ccc(O)cc1 [r40]	0	0	4.747	0	0	–	–
OB(O)O [r41]	0	–	0	0	0	–	–
O=C(Nc1ccccc1-c1ccc(Cl)cc1)c1cccnc1Cl [r42]	0	4.98	0	0	0	–	–
CCC(C)n1c(=O)[nH]c(C)c(Br)c1=O (stereo not drawn) [r43]	0	5.055	0	0	0	–	–
N#Cc1cc(Br)c(O)c(Br)c1 [r44]	0	0	0	0	0	–	–
CC(C)N1C(=O)N(c2ccccc2)CS/C1=N\C(C)(C)C [r45]	0	4.966	0	0	0	–	–
CCCCOCN(C(=O)CCl)c1c(CC)cccc1CC [r46]	0	0	0	0	0	–	–
C=CCOC(=O)C(C)(C)OC(=O)c1cc(-n2c(=O)cc(C(F)(F)F)n(C)c2=O)ccc1Cl [r47]	0	–	0	0	0	–	–
CCC(C)Nc1c([N+](=O)[O-])cc(C(C)(C)C)cc1[N+](=O)[O-] (stereo not drawn) [r48]	–	5.288	0	0	0	–	–
CNC(=O)Oc1cccc2ccccc12 [r52]	0	–	0	0	–	–	–
CC1=C(C(=O)Nc2ccccc2)SCCO1 [r53]	–	5.078	0	0	0	–	–
COc1cc(Cl)c(OC)cc1Cl [r57]	–	0	0	0	0	–	–
CC(C)OC(=O)Nc1cccc(Cl)c1 [r59]	–	4.864	4.936	0	0	–	–
C#CCC1=C(C)[C@H](OC(=O)[C@H]2[C@H](C=C(C)C)C2(C)C)CC1=O [r249]	–	–	–	–	–	5.185	ATG_PBREM_CIS (CAR (NR1I3); HepG2): 5.276; NVS_NR_hAR (AR (androgen receptor)): 4.991
CCCN(CCC)c1c([N+](=O)[O-])cc(C(F)(F)F)c(N)c1[N+](=O)[O-] [r252]	–	–	–	–	–	5.248	ATG_PBREM_CIS (CAR (NR1I3); HepG2): 4.337
CSc1nc(NC(C)C)nc(NC(C)C)n1 [r256]	–	–	–	–	–	5.143	–
CCCC1COC(Cn2cncn2)(c2ccc(Cl)cc2Cl)O1 (stereo not drawn) [r262]	–	–	–	–	–	6.273	NVS_NR_hAR (AR (androgen receptor)): 4.367
CC(C)=CC1C(C(=O)OCc2coc(Cc3ccccc3)c2)C1(C)C (stereo not drawn) [r280]	–	–	–	–	–	–	NVS_NR_hPPARg (PPARg (PPARG)): 4.616
CCc1ccc(C(=O)NN(C(=O)c2cc(C)cc(C)c2)C(C)(C)C)cc1 [r290]	–	–	–	–	–	5.287	–
CCc1nn(C)c(C(=O)NCc2ccc(C(C)(C)C)cc2)c1Cl [r291]	–	–	–	–	–	5.218	ATG_PBREM_CIS (CAR (NR1I3); HepG2 reporter): 5.745
COc1cccc(C(=O)NN(C(=O)c2cc(C)cc(C)c2)C(C)(C)C)c1C [row 202]	–	–	–	–	–	5.142	–
CCc1cccc(C)c1N(C(=O)CCl)C(C)COC (stereo not drawn) [row 208]	–	–	–	–	–	4.911	–
CCN(CC)C(=O)C(C)Oc1cccc2ccccc12 (stereo not drawn) [row 219]	–	–	–	–	–	4.548	NVS_NR_hAR (AR (androgen receptor)): 5.12
CC(C)Oc1cc(-n2nc(C(C)(C)C)oc2=O)c(Cl)cc1Cl [row 225]	–	–	–	–	–	6.246	–
